# In patent US8952024B2, “Herbicidal pyrimidone derivatives” (E I du Pont de Nemours and Company, priority 2009, dated 2015):
# Experiments:
# Format in all cases: in vivo
# [1] = test system: barnyardgrass (Echinochloa crus-galli); assay: Test B flooded paddy test; details: for Plant response rating, Flood, Barnyardgrass: 250 g ai/ha, flooded paddy test, visual rating on 0 to 100 scale (0 no effect, 100 complete control) after 13 to 15 days; for Plant response rating, Barnyardgrass: Flood (flooded paddy test), 13 to 15 days
# In short: (§1)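 Ratings are visual, 0–100 (100 = complete control), taken versus untreated controls 13 to 15 days after treatment in the greenhouse. Compound went straight into paddy water held 3 cm above soil, applied to 2-leaf-stage plants of four species.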
# [2] = test system: umbrella sedge (Cyperus difformis); assay: Test B flooded paddy test; details: for Plant response rating, Flood, Sedge, Umbrella: 250 g ai/ha, flooded paddy test, visual rating on 0 to 100 scale (0 no effect, 100 complete control) after 13 to 15 days; for Plant response rating, Sedge, Umbrella: Flood (flooded paddy test), 13 to 15 days
# In short: as §1
# [3] = test system: ducksalad (Heteranthera limosa); assay: Test B flooded paddy test; details: for Plant response rating, Flood, Ducksalad: 250 g ai/ha, flooded paddy test, visual rating on 0 to 100 scale (0 no effect, 100 complete control) after 13 to 15 days; for Plant response rating, Ducksalad: Flood (flooded paddy test), 13 to 15 days
# In short: as §1
# rice (Oryza sativa) = assay: Test B flooded paddy test; details: for Plant response rating, Flood, Rice: 250 g ai/ha, flooded paddy test, visual rating on 0 to 100 scale (0 no effect, 100 complete control) after 13 to 15 days; for Plant response rating, Rice: Flood (flooded paddy test), 13 to 15 days
# In short: as §1
# [4] = test system: giant foxtail (Setaria faberii); assay: Test B pre-/postemergence plant response
# In short: (§2)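 Visual ratings on a 0–100 scale (100 = complete control) were made versus untreated controls 13–15 days after treatment in a greenhouse. Compounds in surfactant-containing non-phytotoxic solvent were applied preemergence to seeds in loam–sand blend or postemergence to 1- to 4-leaf plants (2–18 cm).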
# [5] = test system: johnsongrass (Sorghum halepense); assay: Test B pre-/postemergence plant response
# In short: as §2
# [6] = test system: goosegrass (Eleusine indica); assay: Test B pre-/postemergence plant response
# In short: as §2
# [7] = test system: wheat (Triticum aestivum); assay: Test B pre-/postemergence plant response
# In short: as §2
# [8] = test system: morningglory (Ipomoea coccinea); assay: Test B pre-/postemergence plant response
# In short: as §2
# [9] = test system: woolly cupgrass (Eriochloa villosa); assay: Test B pre-/postemergence plant response
# In short: as §2
# [10] = test system: morningglory (Ipomoea spp.); assay: Test A pre-/postemergence plant response
# In short: (§3)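 Greenhouse pots of loam/sand received directed preemergence soil sprays or postemergence sprays (plants 2–10 cm, 1–2 leaf stage), compounds formulated in non-phytotoxic solvent with surfactant. Injury was rated visually versus untreated controls after about ten days on a 0 (no effect) to 100 (complete control) scale.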
# [11] = test system: pigweed (Amaranthus retroflexus); assay: Test A pre-/postemergence plant response
# In short: as §3
# [12] = 31 g ai/ha, scale of 0 to 100 where 0 is no effect and 100 is complete control
# [13] = 62 g ai/ha, scale of 0 to 100 where 0 is no effect and 100 is complete control
# [14] = 125 g ai/ha, scale 0 to 100, 0 is no effect, 100 is complete control
# [15] = 31 g ai/ha, postemergence, scale 0 to 100, 0 is no effect, 100 is complete control
# [16] = 250 g ai/ha, Preemergence, 0 to 100 scale
# [17] = Postemergence, 62 g ai/ha, scale 0 (no effect) to 100 (complete control), 13 to 15 days
# [18] = Postemergence, 125 g ai/ha, visual rating after 13 to 15 days, scale 0 (no effect) to 100 (complete control)
# [19] = Postemergence, 250 g ai/ha, scale 0 to 100 (0 no effect, 100 complete control)
# [20] = Preemergence, 31 g ai/ha, scale 0 to 100 (0 no effect, 100 complete control)
# [21] = Preemergence, 62 g ai/ha, scale 0 to 100, 0 no effect, 100 complete control
# [22] = Preemergence, 125 g ai/ha, 0 to 100 scale
# [23] = Postemergence, 125 g ai/ha, visual injury, 0 to 100 scale (0 no effect, 100 complete control), approx. ten days
# [24] = Postemergence, 500 g ai/ha, 0 to 100 scale, 0 = no effect, 100 = complete control, approx. ten days
# [25] = Preemergence, 500 g ai/ha, visual injury, 0 to 100 scale (0 no effect, 100 complete control), approx. ten days
# [26] = Preemergence, 125 g ai/ha, 0 to 100 scale, 0 = no effect, 100 = complete control
# [27] = Preemergence, 125 g ai/ha, scale 0 to 100, 0 no effect, 100 complete control
structure (smiles),measurement,setting,value
Cc1ccc(F)c(-n2c(-c3ccccc3)ncc(C(=O)C3=C(O)CCCC3=O)c2=O)c1 [Compound 51],"Plant response rating, Flood, Barnyardgrass",[1],55
same,"Plant response rating, Barnyardgrass",[1]; [12],15
same,"Plant response rating, Barnyardgrass",[1]; [13],20
same,"Plant response rating, Barnyardgrass",[1]; [14],40
same,"Plant response rating, Flood, Sedge, Umbrella",[2],90
same,"Plant response rating, Sedge, Umbrella",[2]; [12],30
same,"Plant response rating, Sedge, Umbrella",[2]; [13],40
same,"Plant response rating, Sedge, Umbrella",[2]; [14],85
same,"Plant response rating, Flood, Ducksalad",[3],95
same,"Plant response rating, Ducksalad",[3]; [12],0
same,"Plant response rating, Ducksalad",[3]; [13],30
same,"Plant response rating, Ducksalad",[3]; [14],85
same,"Plant response rating, Flood, Rice",rice (Oryza sativa),60
same,"Plant response rating, Rice",rice (Oryza sativa); [12],10
same,"Plant response rating, Rice",rice (Oryza sativa); [13],15
same,"Plant response rating, Rice",rice (Oryza sativa); [14],25
same,"Plant response rating, Foxtail, Giant",[4]; [15],80
same,"Plant response rating, Foxtail, Giant",[4]; [16],75
same,"Plant response rating, Foxtail, Giant",[4]; [17],80
same,"Plant response rating, Foxtail, Giant",[4]; [18],85
same,"Plant response rating, Foxtail, Giant",[4]; [19],85
same,"Plant response rating, Foxtail, Giant",[4]; [20],0
same,"Plant response rating, Foxtail, Giant",[4]; [21],45
same,"Foxtail, Giant plant response rating",[4]; [22],50
same,"Plant response rating, Johnsongrass",[5]; [15],75
same,"Plant response rating, Johnsongrass",[5]; [16],80
same,"Plant response rating, Johnsongrass",[5]; [17],75
same,"Plant response rating, Johnsongrass",[5]; [18],85
same,"Plant response rating, Johnsongrass",[5]; [19],98
same,"Plant response rating, Johnsongrass",[5]; [20],0
same,"Plant response rating, Johnsongrass",[5]; [21],5
same,Johnsongrass plant response rating,[5]; [22],75
same,"Plant response rating, Goosegrass",[6]; [15],75
same,"Plant response rating, Goosegrass",[6]; [16],100
same,"Plant response rating, Goosegrass",[6]; [17],80
same,"Plant response rating, Goosegrass",[6]; [18],85
same,"Plant response rating, Goosegrass",[6]; [19],85
same,"Plant response rating, Goosegrass",[6]; [20],98
same,Goosegrass plant response rating,[6]; [22],100
same,"Plant response rating, Wheat",[7]; [15],5
same,"Plant response rating, Wheat",[7]; [16],10
same,"Plant response rating, Wheat",[7]; [17],10
same,"Plant response rating, Wheat",[7]; [18],10
same,"Plant response rating, Wheat",[7]; [19],30
same,"Plant response rating, Wheat",[7]; [20],0
same,Wheat plant response rating,[7]; [22],0
same,"Plant response rating, Morningglory",[8]; [15],75
same,"Plant response rating, Morningglory",[8]; [16],70
same,"Plant response rating, Morningglory",[8]; [17],80
same,"Plant response rating, Morningglory",[8]; [18],90
same,"Plant response rating, Morningglory",[8]; [19],100
same,"Plant response rating, Morningglory",[8]; [20],0
same,"Plant response rating, Morningglory",[8]; [21],20
same,Morningglory plant response rating,[8]; [22],20
same,"Plant response rating, Cupgrass, Woolly",[9]; [15],75
same,"Plant response rating, Cupgrass, Woolly",[9]; [16],85
same,"Plant response rating, Cupgrass, Woolly",[9]; [17],75
same,"Plant response rating, Cupgrass, Woolly",[9]; [18],80
same,"Plant response rating, Cupgrass, Woolly",[9]; [19],90
same,"Plant response rating, Cupgrass, Woolly",[9]; [20],10
same,"Plant response rating, Cupgrass, Woolly",[9]; [21],35
same,"Cupgrass, Woolly plant response rating",[9]; [22],75
same,Morningglory plant response rating,[10]; [23],100
same,"Plant response rating, Morningglory",[10]; [24],100
same,"Plant response rating, Morningglory",[10]; [25],90
same,Pigweed plant response rating,[11]; [23],100
same,"Plant response rating, Pigweed",[11]; [24],100
same,"Plant response rating, Pigweed",[11]; [26],90
same,"Plant response rating, Pigweed",[11]; [25],100
Cc1ccc(Cl)cc1-n1c(-c2ccccc2)ncc(C(=O)C2=C(O)CCCC2=O)c1=O [Compound 52],"Plant response rating, Flood, Barnyardgrass",[1],55
same,"Plant response rating, Barnyardgrass",[1]; [12],0
same,"Plant response rating, Barnyardgrass",[1]; [13],0
same,"Plant response rating, Barnyardgrass",[1]; [14],40
same,"Plant response rating, Flood, Sedge, Umbrella",[2],40
same,"Plant response rating, Sedge, Umbrella",[2]; [12],20
same,"Plant response rating, Sedge, Umbrella",[2]; [13],30
same,"Plant response rating, Sedge, Umbrella",[2]; [14],30
same,"Plant response rating, Flood, Ducksalad",[3],70
same,"Plant response rating, Ducksalad",[3]; [12],0
same,"Plant response rating, Ducksalad",[3]; [13],0
same,"Plant response rating, Ducksalad",[3]; [14],40
same,"Plant response rating, Flood, Rice",rice (Oryza sativa),60
same,"Plant response rating, Rice",rice (Oryza sativa); [12],0
same,"Plant response rating, Rice",rice (Oryza sativa); [13],0
same,"Plant response rating, Rice",rice (Oryza sativa); [14],50
same,"Plant response rating, Foxtail, Giant",[4]; [15],80
same,"Plant response rating, Foxtail, Giant",[4]; [16],75
same,"Plant response rating, Foxtail, Giant",[4]; [17],80
same,"Plant response rating, Foxtail, Giant",[4]; [18],90
same,"Plant response rating, Foxtail, Giant",[4]; [19],90
same,"Plant response rating, Foxtail, Giant",[4]; [20],0
same,"Plant response rating, Foxtail, Giant",[4]; [21],15
same,"Plant response rating, Foxtail, Giant",[4]; [27],25
same,"Plant response rating, Johnsongrass",[5]; [15],75
same,"Plant response rating, Johnsongrass",[5]; [16],95
same,"Plant response rating, Johnsongrass",[5]; [17],85
same,"Plant response rating, Johnsongrass",[5]; [18],90
same,"Plant response rating, Johnsongrass",[5]; [19],95
same,"Plant response rating, Johnsongrass",[5]; [20],10
same,"Plant response rating, Johnsongrass",[5]; [21],75
same,"Plant response rating, Johnsongrass",[5]; [27],90
same,"Plant response rating, Goosegrass",[6]; [15],75
same,"Plant response rating, Goosegrass",[6]; [16],100
same,"Plant response rating, Goosegrass",[6]; [17],80
same,"Plant response rating, Goosegrass",[6]; [18],85
same,"Plant response rating, Goosegrass",[6]; [19],85
same,"Plant response rating, Goosegrass",[6]; [20],98
same,"Plant response rating, Goosegrass",[6]; [21],100
same,"Plant response rating, Goosegrass",[6]; [27],100
same,"Plant response rating, Wheat",[7]; [15],15
same,"Plant response rating, Wheat",[7]; [16],0
same,"Plant response rating, Wheat",[7]; [17],25
same,"Plant response rating, Wheat",[7]; [18],35
same,"Plant response rating, Wheat",[7]; [19],35
same,"Plant response rating, Wheat",[7]; [20],0
same,"Plant response rating, Wheat",[7]; [21],0
same,"Plant response rating, Wheat",[7]; [27],0
same,"Plant response rating, Morningglory",[8]; [15],10
same,"Plant response rating, Morningglory",[8]; [16],55
same,"Plant response rating, Morningglory",[8]; [17],45
same,"Plant response rating, Morningglory",[8]; [18],75
same,"Plant response rating, Morningglory",[8]; [19],85
same,"Plant response rating, Morningglory",[8]; [20],0
same,"Plant response rating, Morningglory",[8]; [21],0
same,"Plant response rating, Morningglory",[8]; [27],45
same,"Plant response rating, Cupgrass, Woolly",[9]; [15],70
same,"Plant response rating, Cupgrass, Woolly",[9]; [16],80
same,"Plant response rating, Cupgrass, Woolly",[9]; [17],75
same,"Plant response rating, Cupgrass, Woolly",[9]; [18],85
same,"Plant response rating, Cupgrass, Woolly",[9]; [19],95
same,"Plant response rating, Cupgrass, Woolly",[9]; [20],0
same,"Plant response rating, Cupgrass, Woolly",[9]; [21],10
same,"Plant response rating, Cupgrass, Woolly",[9]; [27],65
same,Morningglory plant response rating,[10]; [23],100
same,"Plant response rating, Morningglory",[10]; [24],100
same,"Plant response rating, Morningglory",[10]; [26],30
same,"Plant response rating, Morningglory",[10]; [25],90
same,Pigweed plant response rating,[11]; [23],90
same,"Plant response rating, Pigweed",[11]; [24],100
same,"Plant response rating, Pigweed",[11]; [26],100
same,"Plant response rating, Pigweed",[11]; [25],100
